In ChEMBL document CHEMBL1134984, “Anticancer activity for 4,4'-dihydroxybenzophenone-2,4-dinitrophenylhydrazone (A-007) analogues and their abilities to interact with lymphoendothelial cell surface markers” (Bioorg Med Chem Lett, 2002):
Values after ≈ are worked out from the molar mass of the structure shown. Active and inactive are the calls of the source. The calls are words filed in the database; no cut-off is given here.

Key:
[1] = molecular target: T-cell surface glycoprotein CD4 (Homo sapiens) (UniProt P01730); assay: Binding Intensity against CD4+ HH-leukemic cells at 5 ug/mL.; format: cell-based
[2] = molecular target: T1, Receptor-type tyrosine-protein phosphatase C (Homo sapiens) (UniProt P08575); assay: Binding Intensity was determined against CD45+ HH-leukemic cells at 5 ug/mL; No change; format: cell-based
T1 sequence (whole entry): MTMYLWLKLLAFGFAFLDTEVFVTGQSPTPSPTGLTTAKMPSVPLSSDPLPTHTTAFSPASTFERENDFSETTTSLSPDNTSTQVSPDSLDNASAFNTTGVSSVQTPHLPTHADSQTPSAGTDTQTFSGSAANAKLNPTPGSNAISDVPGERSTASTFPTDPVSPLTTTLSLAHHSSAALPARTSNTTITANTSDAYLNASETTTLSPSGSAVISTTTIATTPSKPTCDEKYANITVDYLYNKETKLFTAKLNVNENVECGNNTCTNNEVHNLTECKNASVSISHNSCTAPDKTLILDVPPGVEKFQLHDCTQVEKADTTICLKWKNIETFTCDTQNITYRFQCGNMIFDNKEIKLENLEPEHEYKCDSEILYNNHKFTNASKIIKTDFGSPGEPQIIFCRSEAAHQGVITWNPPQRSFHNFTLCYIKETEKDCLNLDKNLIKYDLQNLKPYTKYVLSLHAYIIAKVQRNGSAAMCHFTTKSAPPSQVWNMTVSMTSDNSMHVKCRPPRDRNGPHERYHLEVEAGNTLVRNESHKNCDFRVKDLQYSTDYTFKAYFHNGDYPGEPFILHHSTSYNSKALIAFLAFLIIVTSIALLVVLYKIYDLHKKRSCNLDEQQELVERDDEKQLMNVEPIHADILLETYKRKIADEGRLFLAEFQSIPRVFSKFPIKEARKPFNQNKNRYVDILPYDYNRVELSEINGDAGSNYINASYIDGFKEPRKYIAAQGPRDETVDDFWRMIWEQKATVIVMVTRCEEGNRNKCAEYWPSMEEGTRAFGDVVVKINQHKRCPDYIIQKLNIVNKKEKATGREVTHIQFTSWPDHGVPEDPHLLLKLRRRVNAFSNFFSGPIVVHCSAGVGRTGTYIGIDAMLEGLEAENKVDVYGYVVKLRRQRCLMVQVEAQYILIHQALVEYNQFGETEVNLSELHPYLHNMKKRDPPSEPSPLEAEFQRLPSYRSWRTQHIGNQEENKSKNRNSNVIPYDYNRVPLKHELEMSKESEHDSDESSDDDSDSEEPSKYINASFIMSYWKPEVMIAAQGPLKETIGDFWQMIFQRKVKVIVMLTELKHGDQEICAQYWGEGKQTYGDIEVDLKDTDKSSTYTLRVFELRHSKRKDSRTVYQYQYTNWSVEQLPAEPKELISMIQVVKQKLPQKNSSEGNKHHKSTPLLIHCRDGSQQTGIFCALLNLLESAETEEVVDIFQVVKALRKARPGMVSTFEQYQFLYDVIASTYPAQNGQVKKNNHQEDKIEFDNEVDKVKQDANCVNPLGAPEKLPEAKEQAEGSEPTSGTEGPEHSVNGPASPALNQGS

[3] = test system: HH-leukemic; assay: Binding Intensity against CD11C+ HH-leukemic cells at 5 ug/mL.; format: cell-based; details: Homo sapiens
[4] = test system: T-cell; assay: Cytotoxicity in HH T-lymphocytic leukemia cells; format: functional, cell-based; details: Homo sapiens
[5] = test system: HH-leukemic; assay: Binding Intensity against CD11C+ HH-leukemic cells at 5 ug/mL; format: cell-based; details: Homo sapiens
[6] = molecular target: T-cell surface glycoprotein CD4 (Homo sapiens) (UniProt P01730); assay: Binding Intensity against CD4+ HH-leukemic cells at 5 ug/mL; format: cell-based
[7] = molecular target: T1, Receptor-type tyrosine-protein phosphatase C (Homo sapiens); assay: Binding Intensity against CD45+ HH-leukemic cells at 5 ug/mL; format: cell-based

| Compound | Binding intensity [1] | Binding intensity [2] | Binding intensity [3] | IC50 [4] | Binding intensity [5] | Binding intensity [6] | Binding intensity [7] |
| --- | --- | --- | --- | --- | --- | --- | --- |
| Cl.O=C1N=C2C(=Nc3ccccc32)N1c1ccc(O)cc1 | No change | inactive | No change | > 10 µg/mL | – | – | – |
| COc1ccc(C(=NNc2ccc([N+](=O)[O-])cc2[N+](=O)[O-])c2ccc(OC)cc2)cc1 | – | inactive | – | > 10 µg/mL | 25% | 25% | – |
| O=[N+]([O-])c1ccccc1NN=C(c1ccc(O)cc1)c1ccc(O)cc1 | No change | inactive | No change | 2.7 µg/mL (≈ 7.73 µM) | – | – | – |
| O=C1NC(=O)C(C(c2cccnc2)C2C(=O)NC(=O)NC2=O)C(=O)N1 | – | – | – | > 10 µg/mL | – | – | – |
| C/C(=N/Nc1ccc([N+](=O)[O-])cc1)C1C(=O)NC(=O)NC1=O | No change | inactive | No change | > 10 µg/mL | – | – | – |
| O=[N+]([O-])c1ccc(N/N=C/c2ccc(O)cc2)cc1 | – | inactive | – | 5 µg/mL (≈ 19.4 µM) | – | – | – |
| O=C1NC(=O)C(/C=N\Nc2ccc([N+](=O)[O-])cc2)C(=O)N1 | No change | inactive | No change | > 6 µg/mL | – | – | – |
| C/C(=N/Nc1ccc([N+](=O)[O-])cc1[N+](=O)[O-])C1C(=O)NC(=O)NC1=O | No change | inactive | No change | 3.5 µg/mL (≈ 9.99 µM) | – | – | – |
| O=C(O)CCC/N=C/C1C(=O)NC(=O)NC1=O | No change | – | No change | 3.5 µg/mL (≈ 14.5 µM) | – | – | 25% |
| CN1C(=O)C(/C=N\Nc2ccc([N+](=O)[O-])cc2[N+](=O)[O-])C(=O)N(C)C1=O | – | – | – | > 8 µg/mL | – | – | – |
| CN1C(=O)C(C(c2ccnc3ccccc23)C2C(=O)N(C)C(=O)N(C)C2=O)C(=O)N(C)C1=O | – | – | – | > 10 µg/mL | – | – | – |
| O=C1NC(=O)C(C2(C3C(=O)NC(=O)NC3=O)C(=O)Nc3ccccc32)C(=O)N1 | No change | inactive | No change | > 10 µg/mL | – | – | – |
| O=C(O)CC/N=C/C1C(=O)NC(=O)NC1=O | No change | inactive | No change | > 12 µg/mL | – | – | – |
| O=C(O)CCCCC/N=C/C1C(=O)NC(=O)NC1=O | No change | inactive | No change | > 10 µg/mL | – | – | – |
| O=[N+]([O-])c1ccc(NN=C(c2ccccc2)c2ccccc2)c([N+](=O)[O-])c1 | No change | inactive | No change | > 10 µg/mL | – | – | – |
| O=C1NC(=O)C(C(c2ccnc3ccccc23)C2C(=O)NC(=O)NC2=O)C(=O)N1 | No change | – | No change | > 10 µg/mL | – | – | 25% |
| Nc1ccc(C(=NNc2ccc([N+](=O)[O-])cc2[N+](=O)[O-])c2ccc(N)cc2)cc1 | No change | – | No change | 5 µg/mL (≈ 12.7 µM) | – | – | 25% |
| O=[N+]([O-])c1ccc(NN=C(c2ccc(O)cc2)c2ccc(O)cc2)c([N+](=O)[O-])c1 [SIVIFENE] | No change | – | – | 3.2 µg/mL (≈ 8.11 µM) | 20% | – | 50% |
| O=[N+]([O-])c1ccc(NN=C(c2ccc(OP(=O)(O)O)cc2)c2ccc(OP(=O)(O)O)cc2)c([N+](=O)[O-])c1 | No change | inactive | No change | > 10 µg/mL | – | – | – |
| C/C(=N\Nc1ccc([N+](=O)[O-])cc1)c1ccc(O)cc1 | – | inactive | – | 4.1 µg/mL (≈ 15.1 µM) | – | – | – |
| O=[N+]([O-])c1cc([N+](=O)[O-])c(NN=C(c2ccc(O)cc2)c2ccc(O)cc2)cc1Cl | No change | inactive | No change | 1.5 µg/mL (≈ 3.5 µM) | – | – | – |
| CS(=O)(=O)Oc1ccc(C(=NNc2ccc([N+](=O)[O-])cc2[N+](=O)[O-])c2ccc(OS(C)(=O)=O)cc2)cc1 | No change | inactive | No change | > 10 µg/mL | – | – | – |
| O=C(O)CCC/N=C(\c1ccccc1)C1C(=O)NC(=O)NC1=O | No change | inactive | No change | > 10 µg/mL | – | – | – |
| C/C(=N/Nc1ccc([N+](=O)[O-])cc1[N+](=O)[O-])C1C(=O)N(C)C(=O)N(C)C1=O | – | – | No change | 10 µg/mL (≈ 26.4 µM) | – | – | – |
| CN1C(=O)C(C2(C3C(=O)N(C)C(=O)N(C)C3=O)C(=O)Nc3ccccc32)C(=O)N(C)C1=O | No change | inactive | No change | > 10 µg/mL | – | – | – |
| O=C1NC(=O)C(/C(=N\Nc2ccc([N+](=O)[O-])cc2[N+](=O)[O-])c2ccc(O)cc2)C(=O)N1 | No change | inactive | No change | > 10 µg/mL | – | – | – |
| O=C1NC(=O)C(/C(=N\Nc2ccc([N+](=O)[O-])cc2[N+](=O)[O-])c2ccccc2)C(=O)N1 | No change | inactive | No change | > 10 µg/mL | – | – | – |
| O=[N+]([O-])c1ccc(NN=C(c2ccc(NS(=O)(=O)c3ccccc3)cc2)c2ccc(NS(=O)(=O)c3ccccc3)cc2)c([N+](=O)[O-])c1 | – | – | – | 6 µg/mL (≈ 8.92 µM) | – | – | – |
